Results as given in US20250361240A1, “PYRANOPYRIDINE COMPOUND, PROCESS FOR PREPARING THE SAME, PHARMACEUTICAL COMPOSITION AND USE THEREOF” (Zhejiang Yangli Pharmaceutical Technology Co., Ltd., priority 2024, published 2025).
Like-named read-outs stand apart in the source and are kept apart here.

What was measured:
human CYP11B2 = human CYP11B2 (Homo sapiens (Human), UniProt P19099); assay: Inhibitory activity against hCYP11B2 in G-402 CYP11B2 high expression stable transformants (aldosterone HTRF); type: cell-based; details: for IC50: G-402 CYP11B2 cells, 0.2 μM 11-deoxycorticosterone, 16 hours, read-out: hCYP11B2 (AS) Abs IC50; for hCYP11B ½ Selectivity Fold: hCYP11B1 IC50 relative to hCYP11B2 IC50
Sequence of human CYP11B2 (P19099 25-503): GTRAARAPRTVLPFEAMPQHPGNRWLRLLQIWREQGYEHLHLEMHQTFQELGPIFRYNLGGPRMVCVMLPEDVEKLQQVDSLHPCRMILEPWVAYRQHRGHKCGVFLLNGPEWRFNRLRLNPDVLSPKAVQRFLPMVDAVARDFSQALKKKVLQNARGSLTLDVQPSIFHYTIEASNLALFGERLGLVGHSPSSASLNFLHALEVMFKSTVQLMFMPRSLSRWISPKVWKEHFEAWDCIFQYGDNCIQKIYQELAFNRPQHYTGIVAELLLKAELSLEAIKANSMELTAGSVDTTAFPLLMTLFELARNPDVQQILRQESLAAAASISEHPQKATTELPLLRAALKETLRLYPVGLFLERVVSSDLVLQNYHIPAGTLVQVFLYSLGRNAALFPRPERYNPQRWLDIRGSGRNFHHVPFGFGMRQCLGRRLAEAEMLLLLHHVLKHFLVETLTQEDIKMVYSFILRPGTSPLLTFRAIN
Experimental: (§1) 1. Experimental System: G-402 CYP11B2 or CYP11B1 High Expression Stable Transformants
(§2) The above-mentioned high-expression stable transformants were constructed based on human […] cell line G-402. The artificial lentiviruses were introduced into human CYP11B2 (NM_000498.3) and CYP11B1 (NM_000497.4), respectively.
(§3) Maintenance medium: McCoy's 5A (modified, #16600082, GIBCO)+10% FBS (GIBCO)+1 μg/mL puromycin (A1113803, GIBCO).
(§4) Resuscitation and seeding medium: McCoy's 5A (modified, #16600082, GIBCO)+10% FBS (GIBCO).
(§5) Reaction medium: DMEM/F12 (#11320033, GIBCO)+2.5% activated charcoal filtered FBS (S11695, R & D).
(§6) Seeding: Cells were cultured to a suitable state after resuscitation with maintenance medium, and 96-well flat plates were seeded with seeding medium according to 1×10^4/100 μL/well (unified cell volume).
(§7) Changing solution: The supernatant was aspirated and discarded after seeding overnight (>12 hours) and adherence. 100-150 μL/well serum-free medium was added, and after being aspirated. After aspiration, 50 μL/well reaction medium was added for later use.
(§8) Formulation: Compound was diluted with reaction medium containing 0.4 μM substrate (final experimental concentration is 0.2 μM):
CYP11B2 substrate: 11-deoxycorticosterone (11-deoxycorticosterone, S4243, selleckchem). The final reaction concentration was 0.2 μM
(§9) Loading: The above compound dilutions were added to the cell plates at 50 μL/well. The background and control wells were set.
(§10) Treating and sampling: The cell plates were incubated in a cell incubator for 16 hours after loading, and then each cell plate was centrifuged at 450 g for 2 min. 75 μL supernatant was transferred to a collection plate and frozen at −80° C. for future use (or direct detection).
(§11) Detection: Homogeneous time-resolved fluorescence kit (Cisbio HTRF kit, Cat.64ALDPEG, Cat.62CRTPEG) was used to determine the concentration of aldosterone or cortisol in the supernatant.
(§12) Analysis: The absolute IC50 (Abs IC50) for each compound was calculated using a four parameter fit.

human CYP11B1 = human CYP11B1 (Homo sapiens (Human), UniProt P15538); assay: Inhibitory activity against hCYP11B1 in G-402 CYP11B1 high expression stable transformants (cortisol HTRF); type: cell-based; details: G-402 CYP11B1 cells, 0.2 μM 11-deoxycortisol, 16 hours; read-out: hCYP11B1 Abs IC50
Sequence of human CYP11B1 (P15538 25-503): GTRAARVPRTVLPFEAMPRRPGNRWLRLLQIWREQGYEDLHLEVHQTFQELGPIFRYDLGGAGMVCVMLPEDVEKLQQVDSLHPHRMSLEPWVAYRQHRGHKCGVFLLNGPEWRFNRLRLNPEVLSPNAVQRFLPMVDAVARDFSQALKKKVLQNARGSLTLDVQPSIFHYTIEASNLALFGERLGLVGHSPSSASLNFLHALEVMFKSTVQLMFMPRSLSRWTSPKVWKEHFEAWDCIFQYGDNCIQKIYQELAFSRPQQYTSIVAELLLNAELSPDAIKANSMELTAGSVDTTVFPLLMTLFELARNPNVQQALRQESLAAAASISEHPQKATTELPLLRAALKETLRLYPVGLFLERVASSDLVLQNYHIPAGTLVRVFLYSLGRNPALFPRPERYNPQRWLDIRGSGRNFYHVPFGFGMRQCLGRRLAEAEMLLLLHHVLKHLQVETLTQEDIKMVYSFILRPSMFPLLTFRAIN
Experimental: as §1, §2, §3, §4, §5, §6, §7, §8
CYP11B1 substrate: 11-deoxycortisol (11-deoxycortisol, S4775, selleckchem). The final reaction concentration was 0.2 μM.
as §9, §10, §11, §12

CYP1A2 = CYP1A2 (Homo sapiens (Human), UniProt P05177); assay: In vitro inhibitory activity against common CYP450 enzymes: CYP1A2; type: in vitro ADME; details: human, microsomes, 10 min
Sequence of CYP1A2 (P05177 whole entry): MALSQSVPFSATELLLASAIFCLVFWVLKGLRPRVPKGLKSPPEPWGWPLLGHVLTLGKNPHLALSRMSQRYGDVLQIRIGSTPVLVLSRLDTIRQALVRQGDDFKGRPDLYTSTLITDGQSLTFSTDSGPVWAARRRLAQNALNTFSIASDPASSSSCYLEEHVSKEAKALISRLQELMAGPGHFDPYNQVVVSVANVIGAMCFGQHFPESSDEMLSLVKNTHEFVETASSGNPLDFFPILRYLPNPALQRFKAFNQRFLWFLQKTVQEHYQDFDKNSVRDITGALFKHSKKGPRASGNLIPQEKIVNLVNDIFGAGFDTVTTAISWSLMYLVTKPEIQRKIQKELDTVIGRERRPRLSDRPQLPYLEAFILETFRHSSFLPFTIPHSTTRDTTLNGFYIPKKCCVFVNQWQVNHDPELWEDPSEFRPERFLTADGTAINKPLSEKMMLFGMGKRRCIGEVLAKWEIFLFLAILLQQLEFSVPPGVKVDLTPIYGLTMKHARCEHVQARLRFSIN
Experimental: (§13) A working solution of the test compound was prepared in a solvent of dimethyl sulfoxide (DMSO) (starting at a final concentration of 50 μM, 3-fold dilution of 7 concentration points). The corresponding microsomes (CORNING, Cat No.452117) and the corresponding substrate solution were prepared (components were shown in Table 2). The working solution of the test compound and the corresponding microsomes were mixed with the corresponding substrate solution and the HLM working solution. The mixture was preheated in a 37.0° C. water bath for 10 min. NADPH cofactor (BONTAC, Cat No.BT04) was added. The resultant mixture was incubated for 10 min in a 37.0° C. water bath. The reaction was terminated by adding cold stop solution. [table] [table] The sample was centrifuged at 4000 rpm for 20 min to precipitate protein and the supernatant was transferred to HPLC water and shaken for 10 min.

CYP2C9 = CYP2C9 (Homo sapiens (Human), UniProt P11712); assay: In vitro inhibitory activity against common CYP450 enzymes: CYP2C9; type: in vitro ADME; details: microsomes, substrate Diclofenac
Sequence of CYP2C9 (P11712 whole entry): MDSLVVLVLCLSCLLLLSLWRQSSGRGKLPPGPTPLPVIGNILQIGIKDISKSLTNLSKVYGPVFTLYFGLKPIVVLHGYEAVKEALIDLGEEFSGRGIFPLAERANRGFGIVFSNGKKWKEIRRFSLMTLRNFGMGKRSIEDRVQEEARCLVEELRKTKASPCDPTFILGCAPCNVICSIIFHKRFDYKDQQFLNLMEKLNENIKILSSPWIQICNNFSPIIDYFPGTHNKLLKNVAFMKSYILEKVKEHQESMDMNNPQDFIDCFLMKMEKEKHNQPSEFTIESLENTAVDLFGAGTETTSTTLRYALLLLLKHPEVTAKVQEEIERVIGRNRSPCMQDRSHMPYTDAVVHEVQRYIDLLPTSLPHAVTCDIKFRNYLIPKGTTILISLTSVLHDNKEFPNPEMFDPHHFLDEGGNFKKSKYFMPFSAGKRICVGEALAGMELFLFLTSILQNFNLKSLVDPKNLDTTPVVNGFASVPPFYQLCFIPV
Experimental: as §13

CYP2C19 = CYP2C19 (Homo sapiens (Human), UniProt P33261); assay: In vitro inhibitory activity against common CYP450 enzymes: CYP2C19; type: in vitro ADME; details: microsomes, substrate (S)-(+)-Mephenytoin
Sequence of CYP2C19 (P33261 whole entry): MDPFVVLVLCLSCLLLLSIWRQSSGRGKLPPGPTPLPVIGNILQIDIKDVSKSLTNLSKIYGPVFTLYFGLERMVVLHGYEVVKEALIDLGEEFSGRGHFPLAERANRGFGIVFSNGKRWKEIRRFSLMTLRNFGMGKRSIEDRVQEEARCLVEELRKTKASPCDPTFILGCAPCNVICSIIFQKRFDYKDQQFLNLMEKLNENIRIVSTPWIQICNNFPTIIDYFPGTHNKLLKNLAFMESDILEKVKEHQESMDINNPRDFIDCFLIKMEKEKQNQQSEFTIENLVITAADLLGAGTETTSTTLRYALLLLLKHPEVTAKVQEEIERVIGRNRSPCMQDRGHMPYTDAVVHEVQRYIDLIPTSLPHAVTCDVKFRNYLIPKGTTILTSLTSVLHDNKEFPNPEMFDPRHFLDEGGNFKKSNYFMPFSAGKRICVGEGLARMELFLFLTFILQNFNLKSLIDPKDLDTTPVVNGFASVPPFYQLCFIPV
Experimental: as §13

CYP2D6 = CYP2D6 (Homo sapiens (Human), UniProt P10635); assay: In vitro inhibitory activity against common CYP450 enzymes: CYP2D6; type: in vitro ADME; details: microsomes, substrate Dextromethorphan
Sequence of CYP2D6 (P10635 whole entry): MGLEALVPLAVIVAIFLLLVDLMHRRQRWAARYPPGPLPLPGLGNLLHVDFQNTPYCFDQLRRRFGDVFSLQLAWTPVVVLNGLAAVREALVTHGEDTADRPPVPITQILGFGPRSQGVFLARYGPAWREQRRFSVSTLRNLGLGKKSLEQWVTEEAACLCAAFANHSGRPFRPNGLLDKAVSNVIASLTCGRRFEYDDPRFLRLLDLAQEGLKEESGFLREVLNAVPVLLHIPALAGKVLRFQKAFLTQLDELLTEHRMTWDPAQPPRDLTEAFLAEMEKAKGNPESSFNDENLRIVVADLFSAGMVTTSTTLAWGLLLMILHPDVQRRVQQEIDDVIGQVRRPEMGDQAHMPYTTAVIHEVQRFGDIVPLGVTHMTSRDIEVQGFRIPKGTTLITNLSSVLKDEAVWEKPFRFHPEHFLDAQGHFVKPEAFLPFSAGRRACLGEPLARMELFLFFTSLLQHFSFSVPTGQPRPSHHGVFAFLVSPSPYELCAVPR
Experimental: as §13

CYP3A-M = CYP3A-M (Homo sapiens, UniProt P08684); assay: In vitro inhibitory activity against common CYP450 enzymes: CYP3A (midazolam); type: in vitro ADME; details: microsomes, substrate Midazolam
Sequence of CYP3A-M (P08684 2-503 limits assumed): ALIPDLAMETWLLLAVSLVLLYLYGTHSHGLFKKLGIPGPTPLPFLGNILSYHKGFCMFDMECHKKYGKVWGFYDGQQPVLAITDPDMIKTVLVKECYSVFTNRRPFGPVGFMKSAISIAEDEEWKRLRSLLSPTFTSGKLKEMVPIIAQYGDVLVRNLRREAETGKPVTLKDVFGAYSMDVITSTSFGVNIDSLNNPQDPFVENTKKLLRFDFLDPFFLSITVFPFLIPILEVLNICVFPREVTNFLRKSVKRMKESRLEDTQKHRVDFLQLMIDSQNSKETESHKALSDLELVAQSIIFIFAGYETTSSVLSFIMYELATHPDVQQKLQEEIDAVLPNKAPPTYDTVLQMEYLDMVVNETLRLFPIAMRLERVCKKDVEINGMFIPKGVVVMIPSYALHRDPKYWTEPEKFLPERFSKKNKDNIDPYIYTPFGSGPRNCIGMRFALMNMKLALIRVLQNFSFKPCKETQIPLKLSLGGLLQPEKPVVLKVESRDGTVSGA
Experimental: as §13

aldosterone synthesis = assay: Pharmacodynamic test in cynomolgus monkeys with ACTH stimulation: aldosterone in plasma; type: in vivo, cynomolgus monkeys (Macaca fascicularis)
Description: (§14) Adult cynomolgus monkeys (Macaca fascicularis) with suitable body weight and age were selected. 1 male and 1 female cynomolgus monkeys were used for experiment. The adaptation period was 1 week. On the day of the experiment, monkeys were individually housed in stainless steel mesh cages for testing.
(§15) Oral treatment and ACTH working solution (working solution diluted to the desired concentration in PBS sterile solution by ultrapure water filtration through a 0.22 μm filter using Tetracosactrin (HY-P0060, MCE)) were administered as follows: • T=0, 2 monkeys in each group were orally administered 0.5 mg/kg (compound was suspended in 5% aqueous sodium hydroxymethylcellulose solution as vehicle) in a fixed volume of 2 mL/kg; • T=+1 hour (i.e., 1 hour after administration), 14.5 μg/kg of the aforementioned ACTH working solution was injected intramuscularly.
(§16) Sampling test: Blood samples (collected in EDTA anticoagulant tubes) were collected before oral administration (Pre-dose) and 0.5 h, 1 h, 2 h, 4 h, 6 h and 12 h after administration for cortisol concentration measurement in plasma. The blood was centrifuged at 10000 rpm for 15 minutes at 4° C., followed by separation of the plasma and uniform storage at −80° C. for further analysis using an Roche biochemical analyzer to detect aldosterone and cortisol in plasma, and a portion of the plasma (0.5 h, 1 h, 2 h, 4 h, 6 h, and 12 h after administration, and an additional blood collection after 24 h) was taken simultaneously to determine the pharmacokinetic parameters by LC/MS.
(§17) The above experiment was repeated except that: T=0, two monkeys in each group were orally administered at a dose of 0.05 mg/kg (compound was suspended in 5% aqueous sodium hydroxymethylcellulose as vehicle) in a fixed volume of 2 mL/kg.

cortisol levels = assay: Pharmacodynamic test in cynomolgus monkeys with ACTH stimulation: cortisol in plasma; type: in vivo, cynomolgus monkeys (Macaca fascicularis)
Description: as §14, §15, §16, §17

[1] = Pharmacokinetic test in cynomolgus monkeys (LC/MS); type: in vivo, cynomolgus monkeys (Macaca fascicularis); details: for Cmax / Tmax / half-life / AUC(0-t): both sexes, cynomolgus monkey, plasma; for AUC(0-t): read-out: AUC0-24 h
Description: as §14, §15, §16, §17

CYP3A = CYP3A (Homo sapiens, UniProt P08684); assay: In vitro inhibitory activity against common CYP450 enzymes: CYP3A (midazolam); type: in vitro ADME; details: human, human liver microsomes, probe Midazolam, substrate Midazolam
Sequence of CYP3A (P08684 2-503 limits assumed): as above
Experimental: as §13

[2] = 0.5 mg/kg oral, 1 h (ACTH at +1 hour)
[3] = 0.05 mg/kg oral, 1 h (ACTH at +1 hour)

## CCC(=O)N[C@@H]1CCOc2c(-c3ccc4c(c3)CCC(=O)N4C)cncc21 [Example 1, (R)-N-(8-(1-methyl-2-oxo-1,2,3,4-tetrahydroquinolin-6-yl)-3,4-dihydro-2H-pyran[3,2-c]pyridin-4-yl)propanamide]
Human CYP11B2
  IC50: 0.0264 µM
  hCYP11B ½ Selectivity Fold: 159.64 Fold
Human CYP11B1
  IC50: 4.21 µM
CYP1A2
  IC50: > 50 µM
CYP2C9
  IC50: > 50 µM
CYP2C19
  IC50: > 50 µM
CYP2D6
  IC50: > 50 µM
CYP3A-M
  IC50: > 50 µM
Aldosterone synthesis; 0.5 mg/kg oral, 0.5 h
  Aldosterone Concentration in Plasma: 859.25 pg/mL
Aldosterone synthesis; [2]
  Aldosterone Concentration in Plasma: 358.37 pg/mL
Aldosterone synthesis; 0.5 mg/kg oral, 2 h
  Aldosterone Concentration in Plasma: 122.85 pg/mL
Aldosterone synthesis; 0.5 mg/kg oral, 4 h
  Aldosterone Concentration in Plasma: 90.51 pg/mL
Aldosterone synthesis; 0.5 mg/kg oral, 6 h
  Aldosterone Concentration in Plasma: 90.39 pg/mL
Aldosterone synthesis; 0.5 mg/kg oral, 12 h
  Aldosterone Concentration in Plasma: 89.42 pg/mL
Aldosterone synthesis; 0.5 mg/kg oral, Pre-dose
  Aldosterone Concentration in Plasma: 222.84 pg/mL
Cortisol levels; 0.5 mg/kg oral, 0.5 h
  Cortisol Concentration in Plasma: 1000.0 pg/mL
Cortisol levels; [2]
  Cortisol Concentration in Plasma: 876.5 pg/mL
Cortisol levels; 0.5 mg/kg oral, 2 h
  Cortisol Concentration in Plasma: 1180.0 pg/mL
Cortisol levels; 0.5 mg/kg oral, 4 h
  Cortisol Concentration in Plasma: 602.7 pg/mL
Cortisol levels; 0.5 mg/kg oral, 6 h
  Cortisol Concentration in Plasma: 476.3 pg/mL
Cortisol levels; 0.5 mg/kg oral, 12 h
  Cortisol Concentration in Plasma: 377.3 pg/mL
Cortisol levels; 0.5 mg/kg oral, Pre-dose
  Cortisol Concentration in Plasma: 699.3 pg/mL
[1]; 0.5 mg/kg, 0.5mpk oral
  Cmax: 152 ng/mL
  Tmax: 2 h
  half-life: 9.09 h
  AUC(0-t): 1960 ng·h/mL

## CCC(=O)N[C@@H]1CCOc2c(-c3cc4c(cc3F)N(C)C(=O)CC4)cncc21 [Example 8, (R)-N-(8-(7-Fluoro-1-methyl-2-oxo-1,2,3,4-tetrahydroquinolin-6-yl)-3,4-dihydro-2H-pyran[3,2-c]pyridin-4-yl)propanamide]
Human CYP11B2
  IC50: 0.0231 µM
  hCYP11B ½ Selectivity Fold: 199 Fold
Human CYP11B2; hCYP11B2 versus hCYP11B1, compared with reference Baxdrostat
  selectivity (in words): better selectivity
Human CYP11B1
  IC50: 4.6 µM
CYP1A2
  IC50: > 50 µM
CYP2C9
  IC50: > 50 µM
CYP2C19
  IC50: > 50 µM
CYP2D6
  IC50: > 50 µM
CYP3A
  IC50 at 10 min: > 50 µM
Aldosterone synthesis; 0.05 mg/kg oral
  effect on aldosterone synthesis (in words): significantly inhibited aldosterone synthesis
Aldosterone synthesis; 0.05 mg/kg oral, 0.5 h
  Aldosterone Concentration in Plasma: 557.64 pg/mL
Aldosterone synthesis; [3]
  Aldosterone Concentration in Plasma: 350.13 pg/mL
Aldosterone synthesis; 0.05 mg/kg oral, 2 h
  Aldosterone Concentration in Plasma: 139.86 pg/mL
Aldosterone synthesis; 0.05 mg/kg oral, 4 h
  Aldosterone Concentration in Plasma: 81.71 pg/mL
Aldosterone synthesis; 0.05 mg/kg oral, 6 h
  Aldosterone Concentration in Plasma: 84.08 pg/mL
Aldosterone synthesis; 0.05 mg/kg oral, 12 h
  Aldosterone Concentration in Plasma: 91.38 pg/mL
Aldosterone synthesis; 0.05 mg/kg oral, Pre-dose
  Aldosterone Concentration in Plasma: 421.96 pg/mL
Cortisol levels; 0.05 mg/kg oral, 0.5 h
  Cortisol Concentration in Plasma: 1590.4 pg/mL
Cortisol levels; [3]
  Cortisol Concentration in Plasma: 1335.6 pg/mL
Cortisol levels; 0.05 mg/kg oral, 2 h
  Cortisol Concentration in Plasma: 1990.5 pg/mL
Cortisol levels; 0.05 mg/kg oral, 4 h
  Cortisol Concentration in Plasma: 818.4 pg/mL
Cortisol levels; 0.05 mg/kg oral, 6 h
  Cortisol Concentration in Plasma: 410.8 pg/mL
Cortisol levels; 0.05 mg/kg oral, 12 h
  Cortisol Concentration in Plasma: 487.5 pg/mL
Cortisol levels; 0.05 mg/kg oral, Pre-dose
  Cortisol Concentration in Plasma: 831.6 pg/mL
[1]; 0.05 mg/kg, 0.05mpk oral
  Cmax: 22.7 ng/mL
  Tmax: 2 h
  half-life: 12.7 h
  AUC(0-t): 332 ng·h/mL
[1]; same dose
  Cmax and AUC relative to the reference Baxdrostat: three times as high
[1]; same dose (0.05mpk)
  Cmax and AUC values relative to the compound of Example 2: twice as high
